Calls of active or inactive are those of the source.
What follows are compounds tested against T1, Phosphatidylinositol 5-phosphate 4-kinase type-2 alpha (Homo sapiens, UniProt P48426).
T1 sequence (P48426 whole entry): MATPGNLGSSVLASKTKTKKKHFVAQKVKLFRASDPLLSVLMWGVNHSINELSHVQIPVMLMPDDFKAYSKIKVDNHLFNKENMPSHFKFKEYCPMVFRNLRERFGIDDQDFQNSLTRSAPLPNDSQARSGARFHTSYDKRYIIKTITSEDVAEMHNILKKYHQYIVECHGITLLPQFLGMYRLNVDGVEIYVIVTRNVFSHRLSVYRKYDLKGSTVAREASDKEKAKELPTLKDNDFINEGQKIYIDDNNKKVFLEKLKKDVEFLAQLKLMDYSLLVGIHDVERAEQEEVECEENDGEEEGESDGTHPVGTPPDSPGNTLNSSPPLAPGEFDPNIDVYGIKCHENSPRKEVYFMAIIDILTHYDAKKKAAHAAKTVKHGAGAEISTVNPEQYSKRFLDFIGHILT
Also: in the data inactive means no Kd found up to 30 µM.

Compound | Kd
CCc1cnn2c(NCc3ccc[n+]([O-])c3)cc(N3CCCC[C@H]3CCO)nc12 [DINACICLIB] | > 30 µM (inactive)
CN1CCN(c2ccc3nc(-c4c(N)c5c(F)cccc5[nH]c4=O)[nH]c3c2)CC1 [DOVITINIB] | > 30 µM (inactive)
COC(=O)[C@@]1(O)C[C@H]2O[C@]1(C)n1c3ccccc3c3c4c(c5c6ccccc6n2c5c31)C(=O)NC4 [K-252A] | > 30 µM (inactive)
Cc1cn(-c2cc(NC(=O)c3ccc(C)c(Nc4nccc(-c5cccnc5)n4)c3)cc(C(F)(F)F)c2)cn1 [NILOTINIB] | > 30 µM (inactive)
CN(C)C(=O)c1cc2cnc(Nc3ccc(N4CCNCC4)cn3)nc2n1C1CCCC1 [RIBOCICLIB] | > 30 µM (inactive)
O=C(Nc1cccc(Cl)c1)Nc1ncc(CCNc2ncnc3ccsc23)s1 [SNS-314] | > 30 µM (inactive)
Nc1nc(N)c2nc(-c3cccc(O)c3)c(-c3cccc(O)c3)nc2n1 [TG100-115] | 7.02 µM

These compounds were tested against Proto-oncogene tyrosine-protein kinase receptor Ret (Homo sapiens, UniProt P07949).
Proto-oncogene tyrosine-protein kinase receptor Ret, sequence (P07949 whole entry): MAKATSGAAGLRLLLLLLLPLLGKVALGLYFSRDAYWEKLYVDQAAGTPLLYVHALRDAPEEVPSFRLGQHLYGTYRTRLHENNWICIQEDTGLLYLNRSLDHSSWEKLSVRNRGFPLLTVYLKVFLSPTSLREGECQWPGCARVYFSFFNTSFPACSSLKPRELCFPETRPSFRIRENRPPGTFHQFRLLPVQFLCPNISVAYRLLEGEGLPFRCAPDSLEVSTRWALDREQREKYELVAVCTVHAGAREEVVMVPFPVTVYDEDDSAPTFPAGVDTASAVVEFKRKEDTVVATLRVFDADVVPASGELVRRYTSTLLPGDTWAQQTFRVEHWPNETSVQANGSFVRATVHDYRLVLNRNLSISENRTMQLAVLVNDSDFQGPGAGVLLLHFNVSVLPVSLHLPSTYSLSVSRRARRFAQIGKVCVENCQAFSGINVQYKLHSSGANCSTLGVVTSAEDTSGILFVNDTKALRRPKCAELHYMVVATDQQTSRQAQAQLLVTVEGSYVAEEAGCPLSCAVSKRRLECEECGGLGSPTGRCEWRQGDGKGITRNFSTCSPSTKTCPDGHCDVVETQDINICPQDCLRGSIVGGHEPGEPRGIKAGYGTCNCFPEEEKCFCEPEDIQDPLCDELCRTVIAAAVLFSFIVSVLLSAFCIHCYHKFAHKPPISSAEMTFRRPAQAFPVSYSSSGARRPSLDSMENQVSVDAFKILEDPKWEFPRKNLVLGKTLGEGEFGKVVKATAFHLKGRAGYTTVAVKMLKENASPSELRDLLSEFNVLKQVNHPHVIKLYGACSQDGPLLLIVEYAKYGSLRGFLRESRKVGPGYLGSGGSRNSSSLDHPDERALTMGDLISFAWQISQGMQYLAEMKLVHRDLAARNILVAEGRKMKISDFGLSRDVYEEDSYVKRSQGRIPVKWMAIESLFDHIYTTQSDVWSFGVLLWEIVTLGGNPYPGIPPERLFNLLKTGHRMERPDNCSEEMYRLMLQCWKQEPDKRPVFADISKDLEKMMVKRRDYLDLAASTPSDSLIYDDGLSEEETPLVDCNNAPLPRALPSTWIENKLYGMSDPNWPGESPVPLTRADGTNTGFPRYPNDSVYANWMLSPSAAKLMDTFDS

Compound | Kd
C1=C/COCc2cc(ccc2OCCN2CCCC2)Nc2nccc(n2)-c2cccc(c2)COC/1 [PACRITINIB] | > 30 µM (inactive)
CNC(=O)c1ccc(C)c(-n2c(C)cc(OCc3ccc(F)cc3F)c(Br)c2=O)c1 [PH-797804] | > 30 µM (inactive)
C=CC(=O)N1CCC(Oc2cc3c(Nc4ccc(Cl)c(Cl)c4F)ncnc3cc2OC)CC1 [POZIOTINIB] | 1.19 µM (active)
CN(C)C(=O)c1cc2cnc(Nc3ccc(N4CCNCC4)cn3)nc2n1C1CCCC1 [RIBOCICLIB] | > 30 µM (inactive)

What follows are compounds tested against Dual specificity protein kinase CLK2 (Homo sapiens, UniProt P49760).
Dual specificity protein kinase CLK2, sequence (P49760 whole entry): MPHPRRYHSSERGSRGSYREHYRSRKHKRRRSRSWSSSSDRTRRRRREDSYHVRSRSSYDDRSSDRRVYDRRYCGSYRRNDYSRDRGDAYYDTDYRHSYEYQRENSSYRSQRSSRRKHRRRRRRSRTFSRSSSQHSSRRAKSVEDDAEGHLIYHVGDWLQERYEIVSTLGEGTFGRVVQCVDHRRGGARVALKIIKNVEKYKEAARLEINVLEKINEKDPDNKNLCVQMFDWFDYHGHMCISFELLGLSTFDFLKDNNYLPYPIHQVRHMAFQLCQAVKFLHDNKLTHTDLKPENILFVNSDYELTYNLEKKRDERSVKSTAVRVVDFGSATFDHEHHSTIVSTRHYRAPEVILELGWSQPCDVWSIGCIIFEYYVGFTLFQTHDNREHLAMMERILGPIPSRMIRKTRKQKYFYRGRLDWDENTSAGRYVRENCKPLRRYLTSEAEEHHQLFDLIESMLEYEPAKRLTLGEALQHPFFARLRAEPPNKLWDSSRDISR

Compound | Kd
COC(=O)[C@@]1(O)C[C@H]2O[C@]1(C)n1c3ccccc3c3c4c(c5c6ccccc6n2c5c31)C(=O)NC4 [K-252A] | 3.81 µM (active)
CNC(=O)c1ccc(C)c(-n2c(C)cc(OCc3ccc(F)cc3F)c(Br)c2=O)c1 [PH-797804] | > 30 µM (inactive)

Each compound was assayed against Serine/threonine-protein kinase MRCK gamma (Homo sapiens, UniProt Q6DT37).
Serine/threonine-protein kinase MRCK gamma, sequence (Q6DT37 whole entry): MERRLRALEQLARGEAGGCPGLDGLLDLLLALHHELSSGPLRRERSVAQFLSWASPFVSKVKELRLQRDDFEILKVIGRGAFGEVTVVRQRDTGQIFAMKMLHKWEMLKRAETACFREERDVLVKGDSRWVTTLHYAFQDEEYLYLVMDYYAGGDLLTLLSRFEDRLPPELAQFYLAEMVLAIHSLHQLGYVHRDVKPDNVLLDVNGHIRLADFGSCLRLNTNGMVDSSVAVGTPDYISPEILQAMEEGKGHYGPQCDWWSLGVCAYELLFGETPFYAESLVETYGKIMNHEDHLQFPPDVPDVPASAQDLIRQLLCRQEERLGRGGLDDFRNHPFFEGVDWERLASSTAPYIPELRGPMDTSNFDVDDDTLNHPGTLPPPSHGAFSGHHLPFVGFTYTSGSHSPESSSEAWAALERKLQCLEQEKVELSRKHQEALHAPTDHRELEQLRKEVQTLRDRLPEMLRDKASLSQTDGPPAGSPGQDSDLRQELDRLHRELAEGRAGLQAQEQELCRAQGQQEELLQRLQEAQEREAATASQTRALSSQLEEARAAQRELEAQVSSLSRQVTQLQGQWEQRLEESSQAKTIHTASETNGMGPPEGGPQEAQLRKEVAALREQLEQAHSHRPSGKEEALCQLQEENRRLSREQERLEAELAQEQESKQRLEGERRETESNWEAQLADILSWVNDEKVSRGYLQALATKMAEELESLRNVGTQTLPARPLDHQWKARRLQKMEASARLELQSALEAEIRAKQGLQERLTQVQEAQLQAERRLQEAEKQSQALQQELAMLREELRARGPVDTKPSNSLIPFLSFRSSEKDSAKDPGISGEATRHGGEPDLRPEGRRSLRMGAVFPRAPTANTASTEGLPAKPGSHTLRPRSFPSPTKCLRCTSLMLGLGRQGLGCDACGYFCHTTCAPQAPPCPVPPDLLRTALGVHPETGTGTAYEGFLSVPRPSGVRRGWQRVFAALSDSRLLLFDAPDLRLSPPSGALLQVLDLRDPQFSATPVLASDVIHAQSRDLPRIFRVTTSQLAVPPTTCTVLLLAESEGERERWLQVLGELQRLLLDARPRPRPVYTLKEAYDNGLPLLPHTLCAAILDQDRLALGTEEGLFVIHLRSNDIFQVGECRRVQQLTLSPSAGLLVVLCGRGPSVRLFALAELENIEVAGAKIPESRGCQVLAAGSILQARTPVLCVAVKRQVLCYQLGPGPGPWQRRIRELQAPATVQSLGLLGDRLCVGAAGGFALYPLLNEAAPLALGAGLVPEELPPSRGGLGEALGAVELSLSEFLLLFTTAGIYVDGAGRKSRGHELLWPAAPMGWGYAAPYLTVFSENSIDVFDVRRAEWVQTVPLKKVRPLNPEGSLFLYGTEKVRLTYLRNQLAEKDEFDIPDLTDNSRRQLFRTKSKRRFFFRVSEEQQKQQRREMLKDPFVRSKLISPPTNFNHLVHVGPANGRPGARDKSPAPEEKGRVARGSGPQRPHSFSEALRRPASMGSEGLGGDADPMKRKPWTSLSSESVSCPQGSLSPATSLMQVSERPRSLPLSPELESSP

Compound | Kd
CCc1cnn2c(NCc3ccc[n+]([O-])c3)cc(N3CCCC[C@H]3CCO)nc12 [DINACICLIB] | > 30 µM (inactive)
Cc1cc(Nc2cc(N3CCN(C)CC3)nc(/C=C/c3ccccc3)n2)n[nH]1 [ENMD-2076] | > 30 µM (inactive)
COC(=O)[C@@]1(O)C[C@H]2O[C@]1(C)n1c3ccccc3c3c4c(c5c6ccccc6n2c5c31)C(=O)NC4 [K-252A] | > 30 µM (inactive)
CN(C)C(=O)c1cc2cnc(Nc3ccc(N4CCNCC4)cn3)nc2n1C1CCCC1 [RIBOCICLIB] | > 30 µM (inactive)
O=C(Nc1cccc(Cl)c1)Nc1ncc(CCNc2ncnc3ccsc23)s1 [SNS-314] | > 30 µM (inactive)

These compounds were tested against Phosphatidylethanolamine-binding protein 1 (Homo sapiens, UniProt P30086).
Phosphatidylethanolamine-binding protein 1, sequence (P30086 whole entry): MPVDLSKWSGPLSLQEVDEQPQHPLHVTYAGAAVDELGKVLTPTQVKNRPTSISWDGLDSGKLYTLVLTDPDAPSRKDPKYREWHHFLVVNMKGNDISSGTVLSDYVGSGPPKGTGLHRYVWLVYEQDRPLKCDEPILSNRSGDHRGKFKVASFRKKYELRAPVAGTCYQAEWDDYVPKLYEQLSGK

Compound | Kd
CCc1cnn2c(NCc3ccc[n+]([O-])c3)cc(N3CCCC[C@H]3CCO)nc12 [DINACICLIB] | > 30 µM (inactive)
Cc1cc(Nc2cc(N3CCN(C)CC3)nc(/C=C/c3ccccc3)n2)n[nH]1 [ENMD-2076] | > 30 µM (inactive)
CCn1c(-c2nonc2N)nc2c(C#CC(C)(C)O)ncc(OC[C@H]3CCCNC3)c21 [GSK-690693] | > 30 µM (inactive)
Cc1cn(-c2cc(NC(=O)c3ccc(C)c(Nc4nccc(-c5cccnc5)n4)c3)cc(C(F)(F)F)c2)cn1 [NILOTINIB] | > 30 µM (inactive)
C1=C/COCc2cc(ccc2OCCN2CCCC2)Nc2nccc(n2)-c2cccc(c2)COC/1 [PACRITINIB] | > 30 µM (inactive)
CNC(=O)c1ccc(C)c(-n2c(C)cc(OCc3ccc(F)cc3F)c(Br)c2=O)c1 [PH-797804] | > 30 µM (inactive)
CN(C)C(=O)c1cc2cnc(Nc3ccc(N4CCNCC4)cn3)nc2n1C1CCCC1 [RIBOCICLIB] | > 30 µM (inactive)
O=C(Nc1cccc(Cl)c1)Nc1ncc(CCNc2ncnc3ccsc23)s1 [SNS-314] | > 30 µM (inactive)

What follows are compounds tested against Epidermal growth factor receptor (Homo sapiens, UniProt P00533).
Epidermal growth factor receptor, sequence (P00533 whole entry): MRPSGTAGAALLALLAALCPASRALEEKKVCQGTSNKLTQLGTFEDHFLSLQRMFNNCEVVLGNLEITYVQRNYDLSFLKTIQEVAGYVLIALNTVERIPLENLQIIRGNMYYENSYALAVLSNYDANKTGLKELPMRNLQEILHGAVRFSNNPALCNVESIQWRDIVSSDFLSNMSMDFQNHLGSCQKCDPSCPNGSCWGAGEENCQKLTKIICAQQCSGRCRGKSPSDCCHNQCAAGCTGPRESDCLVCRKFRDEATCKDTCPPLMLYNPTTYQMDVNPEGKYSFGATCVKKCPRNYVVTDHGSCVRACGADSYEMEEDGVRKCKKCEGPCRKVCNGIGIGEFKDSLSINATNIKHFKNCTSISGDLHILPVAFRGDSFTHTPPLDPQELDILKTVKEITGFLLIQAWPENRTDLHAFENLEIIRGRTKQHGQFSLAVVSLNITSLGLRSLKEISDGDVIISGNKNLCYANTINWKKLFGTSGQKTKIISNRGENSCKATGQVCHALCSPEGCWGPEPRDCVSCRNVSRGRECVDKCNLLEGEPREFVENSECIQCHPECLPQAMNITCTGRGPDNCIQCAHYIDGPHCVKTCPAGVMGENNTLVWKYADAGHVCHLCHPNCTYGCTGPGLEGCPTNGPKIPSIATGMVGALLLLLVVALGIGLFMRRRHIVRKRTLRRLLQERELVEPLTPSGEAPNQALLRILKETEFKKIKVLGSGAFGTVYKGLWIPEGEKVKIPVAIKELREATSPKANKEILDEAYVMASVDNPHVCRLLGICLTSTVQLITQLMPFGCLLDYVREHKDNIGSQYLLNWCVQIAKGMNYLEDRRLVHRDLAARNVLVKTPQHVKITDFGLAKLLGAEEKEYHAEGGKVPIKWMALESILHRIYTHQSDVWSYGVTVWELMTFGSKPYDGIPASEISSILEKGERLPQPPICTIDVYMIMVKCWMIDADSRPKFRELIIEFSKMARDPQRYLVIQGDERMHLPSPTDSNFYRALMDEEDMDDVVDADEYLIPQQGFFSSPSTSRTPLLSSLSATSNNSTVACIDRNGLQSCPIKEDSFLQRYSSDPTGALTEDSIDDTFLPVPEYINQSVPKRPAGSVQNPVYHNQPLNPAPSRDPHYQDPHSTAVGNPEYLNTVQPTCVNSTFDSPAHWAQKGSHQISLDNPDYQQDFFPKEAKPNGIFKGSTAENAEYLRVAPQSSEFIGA

Compound | Kd
CCc1cnn2c(NCc3ccc[n+]([O-])c3)cc(N3CCCC[C@H]3CCO)nc12 [DINACICLIB] | > 30 µM (inactive)
COC(=O)[C@@]1(O)C[C@H]2O[C@]1(C)n1c3ccccc3c3c4c(c5c6ccccc6n2c5c31)C(=O)NC4 [K-252A] | > 30 µM (inactive)
C1=C/COCc2cc(ccc2OCCN2CCCC2)Nc2nccc(n2)-c2cccc(c2)COC/1 [PACRITINIB] | > 30 µM (inactive)
CNC(=O)c1ccc(C)c(-n2c(C)cc(OCc3ccc(F)cc3F)c(Br)c2=O)c1 [PH-797804] | > 30 µM (inactive)
CN(C)C(=O)c1cc2cnc(Nc3ccc(N4CCNCC4)cn3)nc2n1C1CCCC1 [RIBOCICLIB] | > 30 µM (inactive)
Nc1nc(N)c2nc(-c3cccc(O)c3)c(-c3cccc(O)c3)nc2n1 [TG100-115] | > 30 µM (inactive)

These compounds were tested against T2, Isoleucine--tRNA ligase, mitochondrial (Homo sapiens, UniProt Q9NSE4).
T2 sequence (Q9NSE4 whole entry): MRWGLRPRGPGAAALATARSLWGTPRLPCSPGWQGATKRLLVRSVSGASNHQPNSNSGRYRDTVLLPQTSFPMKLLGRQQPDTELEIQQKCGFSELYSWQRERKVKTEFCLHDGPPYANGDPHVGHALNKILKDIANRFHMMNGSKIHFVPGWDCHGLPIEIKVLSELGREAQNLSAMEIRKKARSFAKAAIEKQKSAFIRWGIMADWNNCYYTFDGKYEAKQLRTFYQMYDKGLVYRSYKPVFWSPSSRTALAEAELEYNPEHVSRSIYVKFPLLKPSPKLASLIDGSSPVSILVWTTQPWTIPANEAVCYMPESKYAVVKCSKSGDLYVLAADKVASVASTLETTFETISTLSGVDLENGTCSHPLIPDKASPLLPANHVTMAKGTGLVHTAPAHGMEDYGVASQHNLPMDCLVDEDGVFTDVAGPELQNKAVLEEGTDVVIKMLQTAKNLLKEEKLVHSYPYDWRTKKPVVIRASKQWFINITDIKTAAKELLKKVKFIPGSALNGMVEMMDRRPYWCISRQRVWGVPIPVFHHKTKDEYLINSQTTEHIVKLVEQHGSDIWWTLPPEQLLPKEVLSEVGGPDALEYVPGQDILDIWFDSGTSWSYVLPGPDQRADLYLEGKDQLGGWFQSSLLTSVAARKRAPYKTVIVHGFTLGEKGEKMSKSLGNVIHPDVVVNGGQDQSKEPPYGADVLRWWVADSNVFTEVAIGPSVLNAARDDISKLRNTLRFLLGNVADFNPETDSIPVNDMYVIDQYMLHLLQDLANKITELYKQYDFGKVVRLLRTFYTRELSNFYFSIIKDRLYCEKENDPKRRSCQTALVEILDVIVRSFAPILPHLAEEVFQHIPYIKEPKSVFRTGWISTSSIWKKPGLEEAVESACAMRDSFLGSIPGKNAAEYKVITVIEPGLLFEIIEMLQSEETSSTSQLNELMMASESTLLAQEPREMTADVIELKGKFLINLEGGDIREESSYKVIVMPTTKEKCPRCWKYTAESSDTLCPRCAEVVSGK

Compound | Kd
CCc1cnn2c(NCc3ccc[n+]([O-])c3)cc(N3CCCC[C@H]3CCO)nc12 [DINACICLIB] | > 30 µM (inactive)
Cc1cc(Nc2cc(N3CCN(C)CC3)nc(/C=C/c3ccccc3)n2)n[nH]1 [ENMD-2076] | > 30 µM (inactive)
CCn1c(-c2nonc2N)nc2c(C#CC(C)(C)O)ncc(OC[C@H]3CCCNC3)c21 [GSK-690693] | > 30 µM (inactive)
Cc1cn(-c2cc(NC(=O)c3ccc(C)c(Nc4nccc(-c5cccnc5)n4)c3)cc(C(F)(F)F)c2)cn1 [NILOTINIB] | > 30 µM (inactive)
C1=C/COCc2cc(ccc2OCCN2CCCC2)Nc2nccc(n2)-c2cccc(c2)COC/1 [PACRITINIB] | > 30 µM (inactive)
CN(C)C(=O)c1cc2cnc(Nc3ccc(N4CCNCC4)cn3)nc2n1C1CCCC1 [RIBOCICLIB] | > 30 µM (inactive)
O=C(Nc1cccc(Cl)c1)Nc1ncc(CCNc2ncnc3ccsc23)s1 [SNS-314] | > 30 µM (inactive)
Nc1nc(N)c2nc(-c3cccc(O)c3)c(-c3cccc(O)c3)nc2n1 [TG100-115] | > 30 µM (inactive)

These compounds were tested against T3, Thyroid hormone receptor-associated protein 3 (Homo sapiens, UniProt Q9Y2W1).
T3 sequence (Q9Y2W1 whole entry): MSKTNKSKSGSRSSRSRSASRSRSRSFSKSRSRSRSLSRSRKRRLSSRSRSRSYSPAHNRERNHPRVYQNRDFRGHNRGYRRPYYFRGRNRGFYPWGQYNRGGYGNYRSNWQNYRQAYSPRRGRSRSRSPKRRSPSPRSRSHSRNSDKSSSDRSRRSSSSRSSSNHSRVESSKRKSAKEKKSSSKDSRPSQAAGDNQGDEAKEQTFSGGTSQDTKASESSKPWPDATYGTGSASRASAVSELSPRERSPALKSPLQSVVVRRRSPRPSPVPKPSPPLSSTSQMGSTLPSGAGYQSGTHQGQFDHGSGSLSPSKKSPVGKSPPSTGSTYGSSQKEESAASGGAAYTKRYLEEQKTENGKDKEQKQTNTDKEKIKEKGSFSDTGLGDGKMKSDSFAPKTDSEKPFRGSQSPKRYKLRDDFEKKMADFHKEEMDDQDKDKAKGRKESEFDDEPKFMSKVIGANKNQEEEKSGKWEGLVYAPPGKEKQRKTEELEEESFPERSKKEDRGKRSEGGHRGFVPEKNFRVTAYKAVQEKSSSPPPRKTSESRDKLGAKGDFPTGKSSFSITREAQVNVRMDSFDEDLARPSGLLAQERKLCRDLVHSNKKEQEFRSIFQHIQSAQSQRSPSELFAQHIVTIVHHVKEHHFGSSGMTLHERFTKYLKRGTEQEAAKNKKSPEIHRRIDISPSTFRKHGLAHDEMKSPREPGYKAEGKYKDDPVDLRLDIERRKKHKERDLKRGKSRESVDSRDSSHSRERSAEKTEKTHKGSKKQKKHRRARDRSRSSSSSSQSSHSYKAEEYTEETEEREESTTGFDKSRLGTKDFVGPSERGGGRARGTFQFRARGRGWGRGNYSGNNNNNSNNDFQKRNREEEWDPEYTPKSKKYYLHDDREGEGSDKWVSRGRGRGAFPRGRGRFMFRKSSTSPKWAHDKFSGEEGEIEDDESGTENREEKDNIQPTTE

Compound | Kd
CCc1cnn2c(NCc3ccc[n+]([O-])c3)cc(N3CCCC[C@H]3CCO)nc12 [DINACICLIB] | > 30 µM (inactive)
Cc1cc(Nc2cc(N3CCN(C)CC3)nc(/C=C/c3ccccc3)n2)n[nH]1 [ENMD-2076] | > 30 µM (inactive)
CCn1c(-c2nonc2N)nc2c(C#CC(C)(C)O)ncc(OC[C@H]3CCCNC3)c21 [GSK-690693] | > 30 µM (inactive)
COC(=O)[C@@]1(O)C[C@H]2O[C@]1(C)n1c3ccccc3c3c4c(c5c6ccccc6n2c5c31)C(=O)NC4 [K-252A] | > 30 µM (inactive)
Cc1cn(-c2cc(NC(=O)c3ccc(C)c(Nc4nccc(-c5cccnc5)n4)c3)cc(C(F)(F)F)c2)cn1 [NILOTINIB] | > 30 µM (inactive)
C1=C/COCc2cc(ccc2OCCN2CCCC2)Nc2nccc(n2)-c2cccc(c2)COC/1 [PACRITINIB] | > 30 µM (inactive)
O=C(Nc1cccc(Cl)c1)Nc1ncc(CCNc2ncnc3ccsc23)s1 [SNS-314] | > 30 µM (inactive)
Nc1nc(N)c2nc(-c3cccc(O)c3)c(-c3cccc(O)c3)nc2n1 [TG100-115] | > 30 µM (inactive)

Reference: ChEMBL document CHEMBL3991601, “The target landscape of clinical kinase drugs” (Science, 2017)
